Marks after values point to notes of the source that are not given here.

Holding throughout (type): cell-based, mouse
The subject of test [1] is IL-1β. Kind of test: IL-1β release from murine osteoblast (culture supernatant cytokine assay). To be noted: 24 hours culture. As for the experimental part:
(§1) Under anesthesia with pentobarbital sodium (25 mg/kg, intraperitoneal administration), postcava was cut to bleed and kill the animal to death. Then, bilateral femoral bones were resected. This bone was cut with a pair of bone scissors, to remove the bone marrow with a micro-loop. The inner face of the bone was rubbed off with a sharp blade. The resulting matter was agitated in a 10 % collagenase solution (Nitta gelatin) at 37 °C for 20 minutes, and to the resulting mixture was added a culture medium (an MEM culture medium supplemented with 10 % charcoal-treated bovine fetal serum; manufactured by Nissui Pharmaceutical, Co. Ltd.) prior to centrifugation (300×g, 5 minutes and 20 °C). The resulting cells were dispersed in a fresh culture medium and then inoculated on a plastic culture dish (diameter of 35 mm, Primaria (Falcon)). […] Osteoblast was identified by using alkali phosphatase staining as an osteoblast marker. For recovering osteoblast from an animal after ovariectomy, ovariectomy was carried out at age 11 weeks, and the animal was fed for the following 4 weeks, prior to the same treatment.
(§2) Dienogest as a test substance was dissolved and diluted in dimethylsulfoxide (DMSO, manufactured by Wako Pure Chemical Industries, Ltd.) for use. As a control substance, furthermore, MPA and danazol were used after they were dissolved and diluted in DMSO. DMSO was used as a solvent control.
(§3) The final concentrations of the drug were 10^-11, 10^-10 and 10^-9 M. For experiments, furthermore, three dishes per each group were used.
(§4) Using SMRART ™ (Pharmacia Biotech, Uppsala, Sweden), the supernatant was concentrated by about 10 fold, after the termination of culturing. The level of cytokine in the sample was assayed by using assay kits of murine IL-1β, IL-6 and TNF-α (Cytoscreen™, BioSource International, Camarillo, Calif. CA, USA) and europium-labeled streptoavidin (Pharmacia Biotech).

Test [2] deals with IL-6. The test can be described thus: IL-6 release from murine osteoblast (culture supernatant cytokine assay). The note with it: 24 hours culture. Here is the method:
as §1, §2, §3, §4

The subject of test [3] is PKA. Kind of test: PKA activity in murine osteoblast (time-resolved fluorometry). To be noted: Fig.2. As for the experimental part:
According to the method by Johansen, et al. (Journal Bone and Mineral Research, Vol.7, pp.501-509, 1992), osteoblast was collected from the femoral bones of a female SLC : ICR mouse of age 15 weeks. Under anesthesia with pentobarbital sodium (25 mg/kg, intraperitoneal administration), postcava was cut to bleed and kill the animal to death. Then, bilateral femoral bones were resected. This bone was cut with a pair of bone scissors, to remove the bone marrow with a micro-loop. The inner face of the bone was rubbed off with a sharp blade. The resulting matter was agitated in a 10 % collagenase solution (Nitta gelatin) at 37 °C for 20 minutes, and to the resulting mixture was added a culture medium (an MEM culture medium supplemented with 10 % charcoal-treated bovine fetal serum; manufactured by Nissui Pharmaceutical, Co. Ltd.) prior to centrifugation (300×g, 5 minutes and 20 °C). The resulting cells were dispersed in a fresh culture medium and then inoculated on a plastic culture dish (diameter of 35 mm, Primaria (Falcon)). […] Osteoblast was identified by using alkali phosphatase staining as an osteoblast marker. For recovering osteoblast from an animal after ovariectomy, ovariectomy was carried out at age 11 weeks, and the animal was fed for the following 4 weeks, prior to the same treatment. 1×10^4 cells/ml osteoblast suspension (100 µl), a culture medium (890 µl) and a drug solution (10 µl) were added into each well of a plastic 24-well culture plate (Falcon), for culturing at 37 °C in 5 % CO2/95 % air for 24 hours, and then, the resulting culture was centrifuged (300 ×g, 5 minutes, 20°C) to recover the supernatant, which was defined as a cytokine assay sample. […] For experiments, furthermore, three dishes per each group were used. The osteoblast recovered by the method of the Experimental Example 1 was used. […] An enhancer reagent (100 µl) was added, for agitation at room temperature for 5 minutes, to determine the fluorescence intensity with a time-resolved fluorometer. Based on a preliminarily prepared standard curve, PKA activity was calculated.

The mark [4] stands for this setting: osteoblast of non-treated mouse, 10^-9 M, control 13.9.
Setting [5] is: osteoblast of non-treated mouse, 10^-10 M, control 13.9.
[6] abbreviates: osteoblast of non-treated mouse, 10^-11 M, control 13.9.
Where [7] appears, read: osteoblast of ovariectomized mouse, 10^-9 M, control 26.3.
[8] abbreviates: osteoblast of ovariectomized mouse, 10^-10 M, control 26.3.
Setting [9] is: osteoblast of ovariectomized mouse, 10^-11 M, control 26.3.
Setting [10] is: osteoblast of non-treated mouse, 10^-9 M, control 39.9.
[11] abbreviates: osteoblast of non-treated mouse, 10^-10 M, control 39.9.
The mark [12] stands for this setting: osteoblast of non-treated mouse, 10^-11 M, control 39.9.
The mark [13] stands for this setting: osteoblast of ovariectomized mouse, 10^-9 M, control 109.0.
Setting [14] is: osteoblast of ovariectomized mouse, 10^-10 M, control 109.0.
The mark [15] stands for this setting: osteoblast of ovariectomized mouse, 10^-11 M, control 109.0.
[16] abbreviates: doses of 10^-11, 10^-10 and 10^-9 M.

Consider `C#C[C@]1(O)CC[C@H]2[C@@H]3CCC4=Cc5oncc5C[C@]4(C)[C@H]3CC[C@@]21C` [Danazol, danazol], for which the IL-1β in test [1] (setting [4]) was 15.4* pg/ml; in test [1] (setting [5]) it was 13.8 pg/mL; in test [1] (setting [6]), 13.6 pg/mL; in test [1] (setting [7]), 28.1** pg/ml; in test [1] (setting [8]), 26.0 pg/mL; in test [1] (setting [9]) it was 25.2 pg/mL. Further, the IL-6 was 42.0** pg/ml in test [2] (setting [10]); 37.7 pg/mL in test [2] (setting [11]); 38.9 pg/mL in test [2] (setting [12]); 124.0** pg/ml in test [2] (setting [13]); 109.4 pg/mL in test [2] (setting [14]); 111.3 pg/mL in test [2] (setting [15]). In test [3] (setting [16]), the “PKA activity in the murine osteoblast” value was “did not affect”.
Turning to `C[C@]12CCC3=C4CCC(=O)C=C4CC[C@H]3[C@@H]1CC[C@@]2(O)CC#N` [Dienogest, 17 α-cyanomethyl-17β-hydroxy-estra-4,9(10)-dien-3-one], the IL-1β in test [1] (setting [4]) was 12.0** pg/ml; in test [1] (setting [5]) it was 13.7 pg/mL; in test [1] (setting [6]), 14.4 pg/mL; in test [1] (setting [7]), 23.1** pg/ml; in test [1] (setting [8]), 23.8* pg/ml; in test [1] (setting [9]) it was 26.1 pg/mL. For the same compound, the IL-6 is 32.3** pg/ml in test [2] (setting [10]); 35.5 pg/mL in test [2] (setting [11]); 39.3 pg/mL in test [2] (setting [12]); 40.1** pg/ml in test [2] (setting [13]); 47.7** pg/ml in test [2] (setting [14]); 94.2 pg/mL in test [2] (setting [15]). Besides, the “PKA activity in the murine osteoblast” value in test [3] (at a concentration of 10^-9 M or more) is “significantly enhanced”.
Take `CC(=O)O[C@]1(C(C)=O)CC[C@H]2[C@@H]3C[C@H](C)C4=CC(=O)CC[C@]4(C)[C@H]3CC[C@@]21C` [MPA, medroxyprogesterone acetate]: the IL-1β in test [1] (setting [4]) is 16.9* pg/ml; in test [1] (setting [5]), 14.4 pg/mL; in test [1] (setting [6]), 13.3 pg/mL; in test [1] (setting [7]), 30.2** pg/ml; in test [1] (setting [8]) it was 25.9 pg/mL; in test [1] (setting [9]), 26.3 pg/mL. For the same compound, the IL-6 was 45.1** pg/ml in test [2] (setting [10]); 37.6 pg/mL in test [2] (setting [11]); 38.7 pg/mL in test [2] (setting [12]); 122.5** pg/ml in test [2] (setting [13]); 109.3 pg/mL in test [2] (setting [14]); 111.4 pg/mL in test [2] (setting [15]). In addition, the “PKA activity in the murine osteoblast” value in test [3] (setting [16]) is listed as “did not affect”.
